Source: publication PMC12638379, “An innovative approach to development of new pyrazolylquinolin-2-one hybrids as dual EGFR and BRAF^V600E inhibitors” (Molecular Diversity, 2025)
Where two headings read alike, the source gives them in different places.

Test system: NCI 60 cancer cell lines
Assay: NCI anticancer screening over a panel of 60 cancer cells, single concentration 10 µM
Type: cell-based, human
Details: Homo sapiens, read-out: % Growth Inhibition (GI %)
Procedure: Ten final compounds 4a–j and five intermediates 2a–e have been selected by the National Cancer Institute (NCI) for anticancer screening over a panel of 60 cancer cells that cover a variety of histological tissues, including the central nervous system, leukemia, lung, colon, kidney, ovary, breast, and prostate, using the protocol established by the National Cancer Institute (NCI). In a primary screening, each compound was screened at a concentration of 10 µM.
Compounds 2a-e and 4a-j were selected by the National Cancer Institute (NCI) according to the protocol of the Compound Evaluation Branch of the National Cancer Institute, Bethesda, USA, for in vitro anticancer screening which refers in turn to apoptotic activity. The methodology of the NCI anticancer screening has been described in detail elsewhere (http://www.dtp.nci.nih.gov).

With `C/C(=N\Nc1ccc(S(N)(=O)=O)cc1)c1cnn(-c2cc(=O)[nH]c3ccc(C)cc23)c1C` [Compound 4b, (E)-4-(2-(1-(5-methyl-1-(6-methyl-2-oxo-1,2-dihydroquinolin-4-yl)-1H-pyrazol-4-yl)ethylidene)hydrazineyl)benzenesulfonamide] the inhibition at 10 µM (A498, Renal cancer A498, 10 μM) was 5.79%, the inhibition at 10 µM (A549, Non-small cell lung cancer A549/ATCC, 10 μM) was < 5% and the inhibition at 10 µM (ACHN, Renal cancer ACHN, 10 μM) was < 5%. For the same compound, the inhibition at 10 µM (BT-549, Breast cancer BT-549, 10 μM) was < 5%, the inhibition at 10 µM (CAKI-1, Renal cancer CAKI-1, 10 μM) was 5.35% and the inhibition at 10 µM (CCRF-CEM, Leukemia CCRF-CEM, 10 μM) was 16%. For the same compound, the inhibition at 10 µM (COLO 205, Colon cancer COLO 205, 10 μM) was < 5%, the inhibition at 10 µM (DU-145, Prostate cancer DU-145, 10 μM) was < 5% and the inhibition at 10 µM (EKVX, Non-small cell lung cancer EKVX, 10 μM) was < 5%. For the same compound, the inhibition at 10 µM (HCC 2998, Colon cancer HCC-2998, 10 μM) was < 5%, the inhibition at 10 µM (HCT-15, Colon cancer HCT-15, 10 μM) was < 5% and the inhibition at 10 µM (HCT-116, Colon cancer HCT-116, 10 μM) was < 5%. For the same compound, the inhibition at 10 µM (HOP-62, Non-small cell lung cancer HOP-62, 10 μM) was 9.34%, the inhibition at 10 µM (HOP-92, Non-small cell lung cancer HOP-92, 10 μM) was < 5% and the inhibition at 10 µM (HT-29, Colon cancer HT29, 10 μM) was < 5%. For the same compound, the inhibition at 10 µM (Hs-578T, Breast cancer HS 578T, 10 μM) was 14.4%, the inhibition at 10 µM (IGROV-1, Ovarian cancer IGROV1, 10 μM) was < 5% and the inhibition at 10 µM (K562, Leukemia K-562, 10 μM) was 9.72%. It also gave an inhibition at 10 µM (LOX IMVI, Melanoma LOX IMVI, 10 μM) of 13%, an inhibition at 10 µM (Leukemia SR, 10 μM) of 40.3% and an inhibition at 10 µM (MCF7, Breast cancer MCF7, 10 μM) of 16.1%. It also gave an inhibition at 10 µM (MDA-MB-231, Breast cancer MDA-MB-231/ATCC, 10 μM) of 18.8%, an inhibition at 10 µM (MDA-MB-435, Melanoma MDA-MB-435, 10 μM) of 8.01% and an inhibition at 10 µM (MDA-MB-468, Breast cancer MDA-MB-468, 10 μM) of 41.7%. The inhibition at 10 µM (MOLT-4, Leukemia MOLT-4, 10 μM) was 16.1%, the inhibition at 10 µM (Melanoma M14, 10 μM) was < 5% and the inhibition at 10 µM (Melanoma MALM-3M, 10 μM) was 16.4%. For the same compound, the inhibition at 10 µM (NCI-H23, Non-small cell lung cancer NCI-H23, 10 μM) was < 5%, the inhibition at 10 µM (NCI-H226, Non-small cell lung cancer NCI-H226, 10 μM) was 15.9% and the inhibition at 10 µM (NCI-H322M, Non-small cell lung cancer NCI-H322M, 10 μM) was < 5%. The inhibition at 10 µM (NCI-H460, Non-small cell lung cancer NCI-H460, 10 μM) was < 5%, the inhibition at 10 µM (NCI-H522, Non-small cell lung cancer NCI-H522, 10 μM) was 27.9% and the inhibition at 10 µM (NCI/ADR-RES, Ovarian cancer NCI/ADR-RES, 10 μM) was < 5%. For the same compound, the inhibition at 10 µM (OVCAR-4, Ovarian cancer OVCAR-4, 10 μM) was 11.4%, the inhibition at 10 µM (OVCAR-5, Ovarian cancer OVCAR-5, 10 μM) was < 5% and the inhibition at 10 µM (Prostate cancer PC-3, 10 μM) was 9.56%. For the same compound, the inhibition at 10 µM (RPMI-8226, Leukemia RPMI-8226, 10 μM) was < 5%, the inhibition at 10 µM (RXF 393, Renal cancer RXF 393, 10 μM) was 9.76% and the inhibition at 10 µM (SF-268, CNS Cancer SF-268, 10 μM) was 13.3%. The inhibition at 10 µM (SF-295, CNS Cancer SF-295, 10 μM) was 11.1%, the inhibition at 10 µM (SF-539, CNS Cancer SF-539, 10 μM) was 16.9% and the inhibition at 10 µM (SK-MEL-2, Melanoma SK-MEL-2, 10 μM) was 7.35%. The inhibition at 10 µM (SK-MEL-5, Melanoma SK-MEL-5, 10 μM) was 9.87%, the inhibition at 10 µM (SK-MEL-28, Melanoma SK-MEL-28, 10 μM) was < 5% and the inhibition at 10 µM (SK-OV-3, Ovarian cancer SK-OV-3, 10 μM) was < 5%. For the same compound, the inhibition at 10 µM (SN12C, Renal cancer SN12C, 10 μM) was 5.72%, the inhibition at 10 µM (SNB-19, CNS Cancer SNB-19, 10 μM) was 12.6% and the inhibition at 10 µM (SNB-75, CNS Cancer SNB-75, 10 μM) was 12.2%. For the same compound, the inhibition at 10 µM (SW-620, Colon cancer SW-620, 10 μM) was < 5%, the inhibition at 10 µM (T47D, Breast cancer T-47D, 10 μM) was 27.3% and the inhibition at 10 µM (TK-10, Renal cancer TK-10, 10 μM) was < 5%. The inhibition at 10 µM (U-251, CNS Cancer U251, 10 μM) was 13%, the inhibition at 10 µM (UACC-62, Melanoma UACC-62, 10 μM) was 19.2% and the inhibition at 10 µM (UACC-257, Melanoma UACC-257, 10 μM) was < 5%. It also gave an inhibition at 10 µM (UO-31, Renal cancer UO-31, 10 μM) of 11.7%.
